We go through 22 molecules from paper PMC9271751, “Synthesis and Evaluation of Coumarin-Chalcone Derivatives as α-Glucosidase Inhibitors” (Frontiers in Chemistry, 2022).

The target of one experiment is T1, α-Glucosidase from Saccharomyces cerevisiae (EC 3.2.1.20) (Saccharomyces cerevisiae, UniProt P53341).
T1 construct: purchased Sigma-Aldrich
T1 sequence (P53341 whole entry): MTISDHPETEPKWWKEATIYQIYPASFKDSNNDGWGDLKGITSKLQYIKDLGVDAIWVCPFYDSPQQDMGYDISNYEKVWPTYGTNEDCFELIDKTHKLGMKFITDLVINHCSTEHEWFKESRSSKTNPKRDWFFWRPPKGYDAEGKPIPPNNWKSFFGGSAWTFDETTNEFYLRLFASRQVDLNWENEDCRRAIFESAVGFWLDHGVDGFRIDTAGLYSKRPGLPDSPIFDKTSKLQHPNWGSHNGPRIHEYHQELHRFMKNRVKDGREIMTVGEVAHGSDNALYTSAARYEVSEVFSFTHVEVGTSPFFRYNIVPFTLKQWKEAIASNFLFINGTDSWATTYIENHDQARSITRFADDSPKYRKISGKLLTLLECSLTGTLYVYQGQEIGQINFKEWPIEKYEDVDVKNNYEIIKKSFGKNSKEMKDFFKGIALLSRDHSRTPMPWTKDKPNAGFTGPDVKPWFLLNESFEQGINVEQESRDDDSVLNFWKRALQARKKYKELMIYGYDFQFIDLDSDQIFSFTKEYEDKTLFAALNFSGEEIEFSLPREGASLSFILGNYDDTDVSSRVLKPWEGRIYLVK
Kind of experiment: biochemical.
Settings: not given
The method, then:
Ethyl acetoacetate, salicylaldehyde and absolute ethanol were analytical pure grade and purchased from Aladdin (Shanghai) Reagent Co., Ltd. Piperidine; glacial acetic acid, petroleum ether and ethyl acetate were supplied by Titan (Shanghai) Technology Co., Ltd.; α-Glucosidase from Saccharomyces cerevisiae (EC 3.2.1.20), 4-nitrophenyl-α-D-[…] (p-NPG), and Dimethyl sulfoxide (DMSO) were supported by Sigma-Aldrich (United States) Chemical Co., Ltd. Melting points were tested on a micro melting-point instrument. ^1H NMR spectra were measured (CDCl3) by Bruker DPX-500 MHz AVANCE with TMS as an internal standard. Mass spectroscopy was performed on a (LCQTM). The absorbance was recorded by a micro-plate reader.
The α-glucosidase inhibitory activity assay of coumarin-chalcone derivatives 3 (a∼v) was conducted using p-NPG as a substrate. ([Pogaku et al., 2019]; [Saeedi et al., 2019]; [Xu et al., 2019]). 10 μl of the test compound and 10 μl of the enzyme (final concentration 0.1 U/ml) were added to 130 μl of PBS (0.1 M phosphate, pH 6.8), and incubated at 37°C for 10 min. Then p-NPG (final concentration 0.25 mM) was added and the absorbance change was measured by a micro-plate reader at 405 nm. All experiments were assayed four times. The percentage of inhibition was obtained using the formula: Inhibition (%) = […] × 100%, where OD1 and OD0 represent the absorbance value of the experimental group and the blank group respectively. […] The IC50 value of each compound was obtained from the fitting curve of inhibition vs. compound concentration.
Regarding `O=C(/C=C/c1ccccc1Br)c1cc2ccccc2oc1=O` [Compound 3r, (E)-3-[3-(2-bromophenyl)acryloyl]-2H-chromen-2-one], inhibition was half-maximal at 38.6 ± 1.87 µM (IC50). As for `O=C(/C=C/c1ccc(F)cc1)c1cc2ccccc2oc1=O` [Compound 3i, (E)-3-[3-(4-fluorophenyl)acryloyl]-2H-chromen-2-one], the IC50 – broadly, the point on the concentration scale where inhibition reaches its midpoint – is 35.68 ± 0.28 µM.

`O=C(/C=C/c1ccccc1F)c1cc2ccccc2oc1=O` [Compound 3g, (E)-3-[3-(2-fluorophenyl)acryloyl]-2H-chromen-2-one] displayed an IC50 of 48.4 ± 1.42 µM. The same measure, in the same setting: the value for `O=C(/C=C/c1ccc(Br)cc1)c1cc2ccccc2oc1=O` [Compound 3t, (E)-3-[3-(4-bromophenyl)acryloyl]-2H-chromen-2-one] was 24.1 ± 2.36 µM. On the same count and under the same terms, the value for `O=C(/C=C/c1ccc(Cl)cc1)c1cc2ccccc2oc1=O` [Compound 3q, (E)-3-[3-(4-chlorophenyl)acryloyl]-2H-chromen-2-one] was 29.7 ± 2.68 µM; that for `O=C(/C=C/c1ccccc1Cl)c1cc2ccccc2oc1=O` [Compound 3o, (E)-3-[3-(2-chlorophenyl)acryloyl]-2H-chromen-2-one] was 59.7 ± 1.73 µM. Same read-out and setting: next, `O=C(/C=C/c1cccc(Cl)c1)c1cc2ccccc2oc1=O` [Compound 3p, (E)-3-[3-(3-chlorophenyl)acryloyl]-2H-chromen-2-one]: 52.6 ± 2.45 µM.

On to `O=C(/C=C/c1cccc(Br)c1)c1cc2ccccc2oc1=O` [Compound 3s, (E)-3-[3-(3-bromophenyl)acryloyl]-2H-chromen-2-one], for which the half-maximal inhibitory concentration (IC50) stood at 35.6 ± 2.18 µM.

On to `O=C(/C=C/c1ccccc1)c1cc2ccccc2oc1=O` [Compound 3a, (E)-3-cinnamoyl-2H-chromen-2-one], for which the 50% inhibitory concentration (IC50) worked out at 125.3 ± 1.18 µM. `O=C(/C=C/c1cccc(F)c1)c1cc2ccccc2oc1=O` [Compound 3h, (E)-3-[3-(3-fluorophenyl)acryloyl]-2H-chromen-2-one]: the IC50 came out at 45.7 ± 1.28 µM.

The experiment is the same for the next values; noted with them: p-NPG 0.25 mM, enzyme 0.1 U/ml, PBS pH 6.8, 37°C; read-out: IC50, α-glucosidase inhibitory activity.
Regarding `O=C(/C=C/c1ccc(F)c(F)c1)c1cc2ccccc2oc1=O` [Compound 3k, (E)-3-[3-(3,4-difluorophenyl)acryloyl]-2H-chromen-2-one], the IC50 is 49.7 ± 3.28 µM. On the same count and under the same terms, the value for `COc1ccc(/C=C/C(=O)c2cc3ccccc3oc2=O)cc1` [Compound 3e, (E)-3-[3-(4-methoxyphenyl)acryloyl]-2H-chromen-2-one] was 105 ± 1.98 µM; that for `O=C(/C=C/c1cccc(C(F)(F)F)c1)c1cc2ccccc2oc1=O` [Compound 3m, (E)-3-{3-[3-(trifluoromethyl)phenyl]acryloyl}-2H-chromen-2-one] was 64.7 ± 1.82 µM. For the molecule `O=C(/C=C/c1ccc(F)cc1F)c1cc2ccccc2oc1=O` [Compound 3j, (E)-3-[3-(2,4-difluorophenyl)acryloyl]-2H-chromen-2-one], the IC50 was 30.3 ± 2.53 µM. `O=C(/C=C/c1ccccc1C(F)(F)F)c1cc2ccccc2oc1=O` [Compound 3l, (E)-3-{3-[2-(trifluoromethyl)phenyl]acryloyl}-2H-chromen-2-one]: the IC50 was 71.5 ± 2.14 µM. On the same count and under the same terms, the value for `O=C(/C=C/c1ccc(C(F)(F)F)cc1)c1cc2ccccc2oc1=O` [Compound 3n, (E)-3-{3-[4-(trifluoromethyl)phenyl]acryloyl}-2H-chromen-2-one] was 53.6 ± 1.95 µM. Take `COc1ccccc1/C=C/C(=O)c1cc2ccccc2oc1=O` [Compound 3c, (E)-3-[3-(2-methoxyphenyl)acryloyl]-2H-chromen-2-one]: the IC50 stood at 60.9 ± 2.74 µM. In the case of `O=C(/C=C/c1cccs1)c1cc2ccccc2oc1=O` [Compound 3u, (E)-3-[3-(thiophen-2-yl)acryloyl]-2H-chromen-2-one], the IC50 turned out to be 109 ± 2.69 µM.

On to `Cc1ccc(/C=C/C(=O)c2cc3ccccc3oc2=O)cc1` [Compound 3b, (E)-3-[3-(p-tolyl)acryloyl]-2H-chromen-2-one], for which the half-inhibitory concentration (IC50) worked out at 95.2 ± 1.35 µM. Take `CSc1ccc(/C=C/C(=O)c2cc3ccccc3oc2=O)cc1` [Compound 3f, (E)-3-{3-[4-(methylthio)phenyl]acryloyl}-2H-chromen-2-one]: the IC50 was found to be 75.5 ± 0.98 µM. As to `COc1cccc(/C=C/C(=O)c2cc3ccccc3oc2=O)c1` [Compound 3d, (E)-3-[3-(3-methoxyphenyl)acryloyl]-2H-chromen-2-one], the IC50 came out at 96.4 ± 1.37 µM. The same measure, in the same setting: next, `O=C(/C=C/c1cc2ccccc2[nH]1)c1cc2ccccc2oc1=O` [Compound 3v, (E)-3-[3-( ^ 1 H-indol-2-yl)acryloyl]-2H-chromen-2-one]: 103 ± 1.45 µM.

In the next experiment the target is T1, α-Glucosidase from Saccharomyces cerevisiae (EC 3.2.1.20). In words: α-Glucosidase inhibition kinetics (v vs. enzyme concentration, Lineweaver-Burk plots). The class given is biochemical.
Settings: not given
An excerpt: Generally, according to the type of inhibition, enzyme inhibitors can be divided into reversible inhibitors and irreversible inhibitors ([Abuelizz et al., 2019]). In order to obtain the principle of the combination of enzyme inhibitors and enzymes, it is necessary to study the interaction between enzyme inhibitors and enzymes. Compounds 3j, 3q and 3t with strongest inhibitory activity were chosen for the research of inhibition kinetics against α-glucosidase (the inhibitory mechanism analysis of compound 3t was shown in Figure 2 and figures for the inhibitory mechanism analysis of compounds 3j and 3q have been shown in the supporting information). A series of plots of enzymatic reaction rate (v) vs. α-glucosidase concentration in the presence of inhibitors were generated to identify the type of inhibition that is listed in Figure 1.
The inhibit type of inhibitors on α-glucosidase include four types, named competitive inhibition, non-competitive inhibition, mixed inhibition, and anti-competitive inhibition ([Abuelizz et al., 2019]). The inhibition modes of compounds 3j, 3q and 3t against α-glucosidase were investigated using Lineweaver-Burk double reciprocal plot.
The type of inhibition was identified by the plots of enzymatic reaction rate (V) vs. α-glucosidase concentration. The test method was similar to the above enzyme activity assay. In the presence of different concentrations of compounds 3j, 3q and 3t, respectively (0, 25, 30, and 40 μM), the absorbance change was detected under different concentrations of α-glucosidase (0.075, 0.1, 0.125, and 0.15 U/mL).
The inhibition mode was also detected using a similar method to that described above. In the presence of different concentrations of compounds 3j, 3q and 3t, respectively (0, 25, 30 and 40 μM), the absorbance change was measured under different concentrations of p-NPG (0.25, 0.5, 0.75, 1 mM). The inhibition mode of the inhibitor was obtianed using Lineweaver-Burk plots. The constant KI was obtained by secondary plots of the derivatives concentration (I) vs. Slope, constant KIS was obtained by secondary plots of the derivatives concentration (I) vs. Intercept.
Consider `O=C(/C=C/c1ccc(Br)cc1)c1cc2ccccc2oc1=O` [Compound 3t, (E)-3-[3-(4-bromophenyl)acryloyl]-2H-chromen-2-one], for which the Ki (commonly the equilibrium dissociation constant of an inhibitor or competing ligand from its target) is 11 µM. On the same count and under the same terms, next, `O=C(/C=C/c1ccc(Cl)cc1)c1cc2ccccc2oc1=O` [Compound 3q, (E)-3-[3-(4-chlorophenyl)acryloyl]-2H-chromen-2-one]: 16.1 µM.

The experiment is the same for the next values; noted with them: Lineweaver-Burk double reciprocal plot; compound 0, 25, 30, 40 μM; p-NPG 0.25-1 mM.
In the case of `O=C(/C=C/c1ccc(F)cc1F)c1cc2ccccc2oc1=O` [Compound 3j, (E)-3-[3-(2,4-difluorophenyl)acryloyl]-2H-chromen-2-one], the “Inhibition mechanism (inhibition type)” value is recorded as “mixed-type inhibition”.

In the case of `O=C(/C=C/c1ccc(Br)cc1)c1cc2ccccc2oc1=O` [Compound 3t, (E)-3-[3-(4-bromophenyl)acryloyl]-2H-chromen-2-one], the “Inhibition mechanism (inhibition type)” value is recorded as “mixed-type inhibition”. As for `O=C(/C=C/c1ccc(Cl)cc1)c1cc2ccccc2oc1=O` [Compound 3q, (E)-3-[3-(4-chlorophenyl)acryloyl]-2H-chromen-2-one], the “Inhibition mechanism (inhibition type)” value was “mixed-type inhibition”.

The same experiment, now with this note: inhibition constant, enzyme-substrate complex; secondary plot of intercept vs. compound concentration.
As to `O=C(/C=C/c1ccc(F)cc1F)c1cc2ccccc2oc1=O` [Compound 3j, (E)-3-[3-(2,4-difluorophenyl)acryloyl]-2H-chromen-2-one], the KIS came to 25.94 µM.

As to `O=C(/C=C/c1ccc(Cl)cc1)c1cc2ccccc2oc1=O` [Compound 3q, (E)-3-[3-(4-chlorophenyl)acryloyl]-2H-chromen-2-one], the KIS stood at 20.34 µM.

Staying with this experiment, now noted: inhibition constant, free enzyme; secondary plot of slope vs. compound concentration; read-out: KI.
Take `O=C(/C=C/c1ccc(F)cc1F)c1cc2ccccc2oc1=O` [Compound 3j, (E)-3-[3-(2,4-difluorophenyl)acryloyl]-2H-chromen-2-one]: the Ki amounted to 19.5 µM.

The experiment is the same for the next values; noted with them: plots of v vs. α-glucosidase concentration (0.075-0.15 U/mL); compound 0, 25, 30, 40 μM.
As for `O=C(/C=C/c1ccc(F)cc1F)c1cc2ccccc2oc1=O` [Compound 3j, (E)-3-[3-(2,4-difluorophenyl)acryloyl]-2H-chromen-2-one], the Reversibility of inhibition result is “reversible”. Same read-out and setting: next, `O=C(/C=C/c1ccc(Br)cc1)c1cc2ccccc2oc1=O` [Compound 3t, (E)-3-[3-(4-bromophenyl)acryloyl]-2H-chromen-2-one]: “reversible”. On the same count and under the same terms, the value for `O=C(/C=C/c1ccc(Cl)cc1)c1cc2ccccc2oc1=O` [Compound 3q, (E)-3-[3-(4-chlorophenyl)acryloyl]-2H-chromen-2-one] was “reversible”.
